Experimental data published in patent publication US11324832B2, “Tripartite modulators of endosomal G protein-coupled receptors” (Endosome Therapeutics, Inc., priority 2015, dated 2022).
Where a SMILES comes first, the peptide text is derived from it. [ ]: non-standard residue; d: D form. The star is where a group is joined. X1 = CC(C)CCC[C@@H](C)[C@H]1CC[C@H]2[C@@H]3CC[C@H]4C[C@@H](O*)CC[C@]4(C)[C@H]3CC[C@]12C; PEG4 = NCCOCCOCCOCCOCCC(=O)O; PEG3 = NCCOCCOCCOCCC(=O)O

What was measured:
[1] = test system: NK1R-positive neurons in lamina I of the dorsal horn; assay: Cell-attached patch clamp recordings in rat spinal cord slices; assay type: cell-based
Experimental: To evaluate whether NK1R endosomal signaling mediates this sustained activation, cell-attached patch clamp recordings were made from NKiR-positive neurons in lamina I of the dorsal horn in slices of rat spinal cord. […] These findings support a role for NK1R endocytosis in persistent neuronal excitation.
Parasagittal slices (340-400 μm) were prepared using a vibratome from the lumbar region of the rat spinal cord in ice-cold sucrose-based artificial CSF (sACSF) (mM: 100 sucrose, 63 NaCl, 2.5 KCl, 1.2 NaH2PO4, 1.2 MgCl2, 25 glucose, 25 NaHCO3; 95% O2/5% CO2). Slices were transferred to N-Methyl-D-Glucamine (NMDG)-based recovery ACSF (rACSF) (mM: 93 NMDG, 93 HCl, 2.5 KCl, 1.2 NaH2PO4, 30 NaHCO3, 20 HEPES, 25 glucose, 5 Na ascorbate, 2 thiourea, 3 Na pyruvate, 10 MgSO4, 0.5 CaCl2; 95% O2/5% CO2, 15 min, 34° C.). Slices were transferred to normal ACSF (mM: 125 NaCl, 2.5 KCl, 1.25 NaH2PO4, 1.2 MgCl2, 2.5 CaCl2, 25 glucose, 11 NaHCO3; 95% O2/5% CO2) containing 10 μM MK-801 (45 min, 34° C.), then maintained at RT.
Slices of rat spinal cord were transferred to a recording chamber and superfused with normal ACSF (2 ml·min^−1, 36° C.). […] PS2 was not soluble in the low concentrations of DMSO required for electrophysiology. Large, NKiR-positive, presumed nociceptive lamina I neurons were visually identified as described (Imlach, W. L., et al., Molecular Pharmacology, 2015, 88, 460-428). Spontaneous currents were recorded in cell-attached configuration (Multiclamp 700B, Molecular Devices, Sunnyvale, Calif.), sampled at 10 kHz, high pass filtered at 1 Hz, and capacitatively coupled action potential events were analyzed using Axograph X, V 1.4.4 (Axograph). Patch electrodes (resistance 2.5-3.5 MQ) contained KMES-based internal solution (mM: 105 KMES, 20 NaCl, 5 HEPES, 10 BAPTA, 1.5 MgCl2, 4 MgATP, 0.4 NaGTP, 0.1% biocytin; 285-295 mosmol·l^−1) to facilitate subsequent recordings of action potential properties in whole-cell configuration. Recordings were made in the presence of CNQX (6-cyano-7-nitroquinoxaline-2,3-dione) (10 μM; AMPA/kainate receptor antagonist), picrotoxin (100 μM; GABAA receptor antagonist), strychnine (0.5 μM; glycine and acetylcholine receptor antagonist), and AP5 ((2R)-amino-5-phosphonovaleric acid; (2R)-amino-5-phosphonopentanoate) (100 μM; NMDA receptor antagonist) to minimize presynaptic influences on action potential properties. […] Recordings were sampled at 10 kHz and filtered with a high pass filter at 1 Hz and firing rate was measured in two-minute interval bins. At the end of each cell-attached recording, whole-cell recordings were made in current-clamp mode to confirm retention of normal action potential firing. Data were only included in the analysis if cells had action potential amplitudes that were ≥50 mV above threshold to ensure viable neurons were included. Cells were filled with biocytin and sections were processed to confirm NK1R expression by immunofluorescence. […] The firing time was determined as the duration of the response to last action potential. To assess synaptic transmission, whole-cell configuration recordings were made under control conditions or after exposure to Dy4 or Dy4 inact; a bipolar stimulating electrode was placed at the dorsal root entry zone, and electrically-evoked excitatory postsynaptic currents recorded as described (Imlach, W. L., et al., Molecular Pharmacology, 2015, 88, 460-428).

NK1R = assay: Alexa568-SP trafficking in HEK-NK1R cells; assay type: cell-based, rat; settings: 30 min at 37° C.
[2] = test system: motor coordination of mice; assay: Rotarod; assay type: in vivo, mouse; settings: i.t. 50 μM
Experimental: Mice were acclimatized by 3 trials on 2 successive days before experiments. Mice were trained to remain on the rotarod for three consecutive periods. On the experimental day, three baseline time trials (cut-off 120 s) were recorded. […] After 30 min, mice were placed on the rotarod with accelerating velocity for up to 120 s. Times were recorded in 3 successive trials, and latency time to fall was determined at 30, 90 and 120 min

ERK = ERK phosphorylation in rat lamina I dorsal horn neurons in vivo; settings: i.t. 30 min before intraplantar capsaicin
Experimental: Painful peripheral stimuli activate ERK in NKiR-expressing spinal neurons, which coincides with receptor endocytosis and contributes to hyperalgesia. Intraplantar capsaicin stimulated ERK phosphorylation in lamina I dorsal horn neurons (FIG. 5B). […] Thus, capsaicin stimulates clathrin- and dynamin-dependent NK1R endocytosis and ERK activation in spinal neurons in vivo.
After 10 min, rats were transcardially perfused with PBS and then 4% PFA. The spinal cord was removed, immersion fixed in PFA (2 h, 4° C.), and cryoprotected (30% sucrose, PBS, 24 h, 4° C.). The spinal cord (T12 to L4) was embedded in OCT and […] serial coronal sections were cut into 48-well plates containing PBS. Free-floating sections were blocked in PBS containing 10% normal horse serum (1 h, RT). […]
Tissues and cells were observed using a Leica SP8 confocal microscope using HCX PL APO 40× (NA 1.30) and HCX PL APO 63× (NA 1.40) oil objectives. […] NK1R endocytosis and pERK expression were quantified using ImageJ. To quantify NK1R internalization in lamina I neurons, the border of the cytoplasm of the neuronal soma was defined by NeuN fluorescence, and NK1R fluorescence within 5 pixels (0.5 μm) of the border was defined as plasma membrane-associated receptor. The ratio of plasma membrane to cytosolic NK1R-IR fluorescence was determined in >6 lamina I neurons per condition. […]

[3] = 1 μM for 60 min, washed, 60 min antagonist-free, then SP
[4] = 30 μM, preincubated 10 min, SP 1 μM, 2 min

SMILES: CC(=O)N[C@@H](CC(=O)O[C@H]1CC[C@@]2(C)[C@@H](CC[C@@H]3[C@@H]2CC[C@]2(C)[C@@H]([C@H](C)CCCC(C)C)CC[C@@H]32)C1)C(=O)NCCOCCOCCOCCOCCC(=O)NCCOCCOCCOCCC(=O)NCCOCCOCCOCCOCCC(=O)N[C@H](CCCNC(=N)N)C(=O)N1CCC[C@H]1C(=O)N[C@@H](CCCCN)C(=O)N1CCC[C@H]1C(=O)N[C@@H](CCC(N)=O)C(=O)N[C@@H](CCC(N)=O)C(=O)N[C@H](Cc1c[nH]c2ccccc12)C(=O)N[C@@H](Cc1ccccc1)C(=O)N[C@H](Cc1c[nH]c2ccccc12)C(=O)N[C@@H](CC(C)C)C(=O)N[C@@H](CC(C)C)C(N)=O [Compound 1] (Ac-D(X1)[PEG4][PEG3][PEG4][dR]PKPQQ[dW]F[dW]LL-NH2)
- effect on initial SP-evoked excitation [1, 3]: did not suppress the initial excitation
- effect on sustained action potential discharge after SP removal [1, 3]: prevented the action potential discharge
- SP-evoked firing rate, response at 2 min ([1]; 1 μM for 60 min, washed, 60 min antagonist-free, then SP, P>0.05): 196.6±81.6 events. 2 min^−1

SMILES: O=C(N/N=C/c1cc(O)c(O)cc1O)c1cc2ccccc2cc1O [Dy4]
- effect on Alexa568-SP redistribution to endosomes (NK1R): caused retention of Alexa568-SP in vesicles close to the plasma membrane
- effect on initial SP-evoked excitation [1, 4]: did not affect the initial excitation
- effect on sustained action potential discharge after SP removal [1, 4]: prevented the sustained action potential discharge
- effect on glutaminergic primary afferent synaptic transmission and synaptic rundown ([1]; slices of rat spinal cord): did not affect
- effect on rotarod latency [2]: did not affect
- effect on capsaicin-evoked activation of spinal ERK (ERK): prevented capsaicin-evoked activation of spinal ERK

SMILES: O=C1NC(=NS(=O)(=O)c2cccc3ccccc23)S/C1=C\c1ccc(Br)cc1 [PS2]
- effect on Alexa568-SP redistribution to endosomes (NK1R): caused retention of Alexa568-SP in vesicles close to the plasma membrane
- effect on rotarod latency [2]: did not affect
- effect on capsaicin-evoked activation of spinal ERK (ERK): prevented capsaicin-evoked activation of spinal ERK
